# From publication PMC12002130, “Proteorhodopsin insights into the molecular mechanism of vectorial proton transport” (Science Advances, 2025)
# B1: MAR (marine actinobacterial rhodopsin, MacR), a proteorhodopsin (Candidatus Actinomarina minuta) (protein)
# chain: MEELTYRLFMVATVGMLAGTVFLLASSREVKPEHRRGVYISALVCGIAWYHYQKMGASWESGSYDTGLRYVDWVLTVPLMFVEVLAVTRKGAAYNEAVRNWGIAATVMIGAGYYGETSAAGSNEYWTGFVIAMATYVWLMRNLQAEGEGLKGDQAVAFENIKNLILVGWIIYPLGYIAPVVGDFDAIREVLYTIADIINKVGLGVLVLQMARVQSGEKVSPGGGSHHHHHH
# Experiments:
# [1] = molecular target: T1, MAR-Arf1L8K,Q71L chimera (Candidatus Actinomarina minuta, UniProt S5DM51); test: X-ray crystallography; type: binding; settings: covalent; Schiff base to Lys200 of MAR; dark (ground) state, pH 7.0; all-trans form taken from MAR ground state
# T1 construct: MAR fused to bovine Arf1 (L8K, Q71L) as crystallisation spacer on the cytoplasmic side; C-terminal GSGGSHHHHHH tag; expressed in E. coli C41(DE3); retinal site wholly in MAR
# T1 sequence (P84080 2-181 L8K/Q71L, one chain of several, further chain): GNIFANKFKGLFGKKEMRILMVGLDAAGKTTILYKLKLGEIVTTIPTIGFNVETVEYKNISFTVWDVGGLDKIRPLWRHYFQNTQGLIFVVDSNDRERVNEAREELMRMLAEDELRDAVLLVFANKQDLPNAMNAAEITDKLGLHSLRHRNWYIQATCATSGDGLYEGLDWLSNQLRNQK
# [2] = molecular target: T1, MAR-Arf1L8K,Q71L chimera; test: X-ray crystallography, cryotrapped N state; type: binding; settings: covalent; photoisomer formed in situ by 532-nm light; pH 7.0; 2.3 A; isomer not assignable from density alone
# [3] = molecular target: Asp72 (position 72, …); test: UV-vis; settings: dark (ground) state, solubilized MAR with all-trans retinal
molecule,measurement,setting,value
CC1=C(/C=C/C(C)=C/C=C/C(C)=C/C=O)C(C)(C)CCC1 [all-trans retinal],X-ray crystallography,[1],The conformation of the MAR molecule is similar to that in the ground state
"CC1=C(/C=C/C(C)=C/C=C/C(C)=C\C=O)C(C)(C)CCC1 [13-cis,15-anti retinal]","X-ray crystallography, cryotrapped N state",[2],"the retinal conformation in the N state represents the 13-cis,15-anti form"
B1,pKa,[3],~7.4
